Read-outs that look alike come from different tables or passages of the source.
Assays:
[1] = tested on: Herpes simplex virus type 2; assay: Antiviral activity in vitro on HSV2 at different doses (Table A); assay type: cell-based
Method: (§1) The tests were carried out inoculating virus of various kinds on living cells from different sources, forming the respective culture in tissue culture flasks, according to the method well known to those skilled in the art. The virus forms a plurality growing seats on the bottom of the tissue culture flasks, depending on the virus concentration and the test conditions, said seats being easily identifiable with the naked eye. In such a way it is possible to establish the controls. At the same time in the tissue culture flasks wherein the compound of the invention had been introduced, at various concentrations, an inhibition is observed, as shown by a number of growing seats lower than that of the controls. Said inhibition was calculated in percent as referred in the following tables. Tests have been effected by using virus Herpes simplex, type 2 (HSV2), and virus Coxackie B, type 4 (COXB4).

[2] = tested on: virus Coxackie B, type 4 (COXB4); assay: Antiviral activity in vitro on Coxackie B type 4 at different doses (Table B); assay type: cell-based
Method: as §1

[3] = tested on: Herpes simplex virus type 2; assay: Activity in vitro on HSV2 for different times of administration after infection (Table C); assay type: cell-based
Method: as §1, with “In order to ascertain the activity of compound G-413 "in vitro" at a dose of 10 μg on Herpes simplex” for “Tests have been effected by using”, “virus” for “virus Herpes simplex,”, “for different times of administration, a test was effected introducing the compound into the cells after the” for “(HSV2), and”, “infection.” for “Coxackie B, type 4 (COXB4).”

Polio 1 = assay type: cell-based
ECHO 2 = assay: Inhibition of virion production, ECHO 2 on HEp-2 cells (Table E); assay type: cell-based; details: ECHO 2 10^-6; 10^-7; 10^-8, HEp-2
Method: (§2) The activity of the compound G-413 was assessed by the test of inhibition of virion production.
(§3) The test was effected with various types of virus, on HEp-2 cells.

Coxsackie B4 = assay: Inhibition of virion production, Coxsackie B4 on HEp-2 cells (Table F); assay type: cell-based
Method: as §2, §3

HSV2 [4] = assay: Inhibition of virion production, HSV2 on HEp-2 cells (Table G); assay type: cell-based, Herpes simplex virus type 2
Adeno 17 = assay: Inhibition of virion production, Adeno 17 on HEp-2 cells (Table H); assay type: cell-based
Method: as §2, §3

HSV2 [5] = assay: Activity on kidney primary cells of rabbit with respect to HSV2 (Table I)
HSV2 [6] = assay: Activity on kidney secondary cells of rabbit YRK with respect to HSV2 (Table J)
[7] = Table D, Polio 1 10^-6, HEp-2, 20 μg per "Falcon"
[8] = Table D, Polio 1 10^-7, HEp-2, 20 μg per "Falcon"
[9] = Table D, Polio 1 10^-8, HEp-2, 20 μg per "Falcon"

## Nc1nnc(-c2ccccc2S(N)(=O)=O)s1 [G-413]
[1]; HSV2 10^-3, 2,5 μg
  inhibition: 66,7%
  virus growth (HSV2 with G-413): 3,5 PFU/ml
[1]; HSV2 10^-3, 5,0 μg
  inhibition: 66,7%
  virus growth (HSV2 with G-413): 3,5 PFU/ml
[1]; HSV2 10^-3, 10,0 μg
  inhibition: 81,0%
  virus growth (HSV2 with G-413): 2,0 PFU/ml
[1]; HSV2 10^-3, 20,0 μg
  inhibition: 71,5%
  virus growth (HSV2 with G-413): 3,0 PFU/ml
[1]; HSV2 10^-3, 30,0 μg
  inhibition: 52,4%
  virus growth (HSV2 with G-413): 5,0 PFU/ml
[1]; HSV2 10^-3, 40,0 μg
  inhibition: 52,4%
  virus growth (HSV2 with G-413): 5,0 PFU/ml
[1]; HSV2, dose of 10 μg
  percent inhibition (in words): very high percent inhibition
[2]; COXB4 10^-6, 2,5 μg
  inhibition: 28,8%
  virus growth (COXB4 with G-413): 23,5 PFU/ml
[2]; COXB4 10^-6, 5,0 μg
  inhibition: 89,9%
  virus growth (COXB4 with G-413): 3,0 PFU/ml
[2]; COXB4 10^-6, 10,0 μg
  inhibition: 81,9%
  virus growth (COXB4 with G-413): 6,5 PFU/ml
[2]; COXB4 10^-6, 20,0 μg
  inhibition: 80,4%
  virus growth (COXB4 with G-413): 6,5 PFU/ml
[2]; COXB4, dose of 5 μg
  percent inhibition (in words): very high percent inhibition
[3]; HSV2 10^-2 + 10 μg, no delay
  inhibition: 62,5%
  virus growth (HSV2 with G-413): 7,5 PFU/ml
[3]; HSV2 10^-2, 1 h later + 10 μg
  inhibition: 45,0%
  virus growth (HSV2 with G-413): 11,0 PFU/ml
[3]; HSV2 10^-2, 2 h later + 10 μg
  inhibition: 60,0%
  virus growth (HSV2 with G-413): 8,0 PFU/ml
[3]; HSV2 10^-2, 4 h later + 10 μg
  inhibition: 77,0%
  virus growth (HSV2 with G-413): 4,5 PFU/ml
[3]; HSV2 10^-2, 8 h later + 10 μg
  inhibition: 85,0%
  virus growth (HSV2 with G-413): 3,0 PFU/ml
[3]; HSV2 10^-2, 20 h later + 10 μg
  inhibition: 42,5%
  virus growth (HSV2 with G-413): 11,5 PFU/ml
Polio 1; [7]
  inhibition of virion production: 91,9%
  virion production: 29 PFU
Polio 1; [8]
  inhibition of virion production: 98,2%
  virion production: 5 PFU
Polio 1; [9]
  inhibition of virion production: 97,7%
  virion production: 4 PFU
ECHO 2
  inhibition of virion production: 100%
Coxsackie B4; COX B4 10^-4, HEp-2
  inhibition of virion production: 72,0%
  virion production: 14 PFU
Coxsackie B4; COX B4 10^-5, HEp-2
  inhibition of virion production: 83,7%
  virion production: 7 PFU
Coxsackie B4; COX B4 10^-6, HEp-2
  inhibition of virion production: 85,0%
  virion production: 6 PFU
HSV2 [4]; HSV2 10^-1, HEp-2
  inhibition of virion production: 75,2%
  virion production: 8 PFU
HSV2 [4]; HSV2 10^-2, HEp-2
  inhibition of virion production: 75,0%
  virion production: 5 PFU
HSV2 [4]; HSV2 10^-3, HEp-2
  inhibition of virion production: 62,5%
  virion production: 3 PFU
Adeno 17; Adeno 17 10^-4, HEp-2
  inhibition of virion production: 65,0%
  virion production: 35 PFU
Adeno 17; Adeno 17 10^-5, HEp-2
  inhibition of virion production: 67,5%
  virion production: 27 PFU
Adeno 17; Adeno 17 10^-6, HEp-2
  inhibition of virion production: 63,4%
  virion production: 22 PFU
HSV2 [5]; HSV2 10^-1, 10 μg
  inhibition: 38,1%
  virion production: 13 PFU
HSV2 [5]; HSV2 10^-1, 50 μg
  inhibition: 71,5%
  virion production: 6 PFU
HSV2 [5]; HSV2 10^-2, 10 μg
  inhibition: 23,0%
  virion production: 7 PFU
HSV2 [5]; HSV2 10^-2, 50 μg
  inhibition: 77,0%
  virion production: 3 PFU
HSV2 [5]; HSV2 10^-3, 10 μg
  inhibition: 50,0%
  virion production: 2 PFU
HSV2 [5]; HSV2 10^-3, 50 μg
  inhibition: 75,0%
  virion production: 1 PFU
HSV2 [6]; HSV2 10^-2, 5 μg
  inhibition: 10%
  virion production: 9 PFU
HSV2 [6]; HSV2 10^-2, 10 μg
  inhibition: 30%
  virion production: 7 PFU
HSV2 [6]; HSV2 10^-2, 25 μg
  inhibition: 40%
  virion production: 6 PFU
HSV2 [6]; HSV2 10^-2, 50 μg
  inhibition: 70%
  virion production: 3 PFU
HSV2 [6]; HSV2 10^-2, 100 μg
  inhibition: 70%
  virion production: 3 PFU

## CNc1nnc(-c2ccccc2S(N)(=O)=O)s1 [G-444]
Polio 1; Table K, Polio 1 10^-6, HEp-2
  inhibition of virion production: 64,8%
  virion production: 113 PFU
Polio 1; Table K, Polio 1 10^-7, HEp-2
  inhibition of virion production: 65,7%
  virion production: 87 PFU
Polio 1; Table K, Polio 1 10^-8, HEp-2
  inhibition of virion production: 26,6%
  virion production: 83 PFU

## C=CCNc1nnc(-c2ccccc2S(N)(=O)=O)s1 [G-445]
Polio 1; Table K, Polio 1 10^-6, HEp-2
  inhibition of virion production: 73,6%
  virion production: 85 PFU
Polio 1; Table K, Polio 1 10^-7, HEp-2
  inhibition of virion production: 73,2%
  virion production: 68 PFU
Polio 1; Table K, Polio 1 10^-8, HEp-2
  inhibition of virion production: 44,3%
  virion production: 63 PFU
